Measurements taken from ChEMBL document CHEMBL5465560, “Selectivity Literature for EUbOPEN Chemogenomic Library” (2024).
Blank lines part the entries; values can stand above or below the compound they belong to.

Experiments:
[1] = biological target: Histamine H3 receptor (Homo sapiens, UniProt Q9Y5N1); test: Selectivity interaction (Human histamine H3 receptor binding assay ) EUB0000877a HRH3
[2] = biological target: T1, MAP kinase-activated protein kinase 5 (Homo sapiens) (UniProt Q8IW41); test: Selectivity interaction (Kinase panel (Eurofins)) EUB0001564a MAPKAPK5; conditions: at 1 µM
T1 sequence (whole entry): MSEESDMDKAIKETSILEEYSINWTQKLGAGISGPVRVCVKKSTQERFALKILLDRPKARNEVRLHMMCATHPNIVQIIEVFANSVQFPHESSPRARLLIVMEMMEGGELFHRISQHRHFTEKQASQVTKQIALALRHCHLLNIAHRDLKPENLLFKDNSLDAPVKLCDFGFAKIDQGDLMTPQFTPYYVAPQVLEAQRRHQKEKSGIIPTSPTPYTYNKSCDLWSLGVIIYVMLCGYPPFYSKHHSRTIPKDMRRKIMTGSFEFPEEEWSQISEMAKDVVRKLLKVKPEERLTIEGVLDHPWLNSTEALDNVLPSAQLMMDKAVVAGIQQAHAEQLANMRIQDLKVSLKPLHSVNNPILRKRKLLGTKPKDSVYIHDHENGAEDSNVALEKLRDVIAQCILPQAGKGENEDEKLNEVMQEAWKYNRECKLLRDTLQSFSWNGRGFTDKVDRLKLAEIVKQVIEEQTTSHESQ

[3] = biological target: Serine/threonine-protein kinase mTOR (Homo sapiens, UniProt P42345); test: Selectivity interaction (KinomeScan (DiscoverX)) EUB0000607a MTOR; conditions: at 10 µM
[4] = biological target: Tyrosine-protein kinase CSK (Homo sapiens) (UniProt P41240); test: Selectivity interaction (Millipore kinase profiler) EUB0000124b CSK; conditions: at 10 µM
Tyrosine-protein kinase CSK (Homo sapiens), sequence (P41240 2-450 limits assumed): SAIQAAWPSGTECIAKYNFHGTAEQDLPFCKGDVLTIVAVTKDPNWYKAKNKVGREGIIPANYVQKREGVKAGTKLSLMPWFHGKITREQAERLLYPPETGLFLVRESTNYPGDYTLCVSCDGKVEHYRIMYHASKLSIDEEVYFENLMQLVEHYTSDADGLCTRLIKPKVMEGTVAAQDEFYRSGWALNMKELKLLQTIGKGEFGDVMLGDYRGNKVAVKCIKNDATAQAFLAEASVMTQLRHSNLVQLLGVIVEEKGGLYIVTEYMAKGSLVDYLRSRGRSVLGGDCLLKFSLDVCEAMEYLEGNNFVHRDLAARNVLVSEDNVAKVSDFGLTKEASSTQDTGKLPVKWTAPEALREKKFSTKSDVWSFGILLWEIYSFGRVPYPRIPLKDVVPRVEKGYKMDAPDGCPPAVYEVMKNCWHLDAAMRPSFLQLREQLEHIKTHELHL

[5] = biological target: Mitogen-activated protein kinase kinase kinase kinase 4 (Homo sapiens, UniProt O95819); test: Selectivity interaction (KinomeScan (DiscoverX)) EUB0000045b MAP4K4
Mitogen-activated protein kinase kinase kinase kinase 4, sequence (O95819 2-1239 limits assumed): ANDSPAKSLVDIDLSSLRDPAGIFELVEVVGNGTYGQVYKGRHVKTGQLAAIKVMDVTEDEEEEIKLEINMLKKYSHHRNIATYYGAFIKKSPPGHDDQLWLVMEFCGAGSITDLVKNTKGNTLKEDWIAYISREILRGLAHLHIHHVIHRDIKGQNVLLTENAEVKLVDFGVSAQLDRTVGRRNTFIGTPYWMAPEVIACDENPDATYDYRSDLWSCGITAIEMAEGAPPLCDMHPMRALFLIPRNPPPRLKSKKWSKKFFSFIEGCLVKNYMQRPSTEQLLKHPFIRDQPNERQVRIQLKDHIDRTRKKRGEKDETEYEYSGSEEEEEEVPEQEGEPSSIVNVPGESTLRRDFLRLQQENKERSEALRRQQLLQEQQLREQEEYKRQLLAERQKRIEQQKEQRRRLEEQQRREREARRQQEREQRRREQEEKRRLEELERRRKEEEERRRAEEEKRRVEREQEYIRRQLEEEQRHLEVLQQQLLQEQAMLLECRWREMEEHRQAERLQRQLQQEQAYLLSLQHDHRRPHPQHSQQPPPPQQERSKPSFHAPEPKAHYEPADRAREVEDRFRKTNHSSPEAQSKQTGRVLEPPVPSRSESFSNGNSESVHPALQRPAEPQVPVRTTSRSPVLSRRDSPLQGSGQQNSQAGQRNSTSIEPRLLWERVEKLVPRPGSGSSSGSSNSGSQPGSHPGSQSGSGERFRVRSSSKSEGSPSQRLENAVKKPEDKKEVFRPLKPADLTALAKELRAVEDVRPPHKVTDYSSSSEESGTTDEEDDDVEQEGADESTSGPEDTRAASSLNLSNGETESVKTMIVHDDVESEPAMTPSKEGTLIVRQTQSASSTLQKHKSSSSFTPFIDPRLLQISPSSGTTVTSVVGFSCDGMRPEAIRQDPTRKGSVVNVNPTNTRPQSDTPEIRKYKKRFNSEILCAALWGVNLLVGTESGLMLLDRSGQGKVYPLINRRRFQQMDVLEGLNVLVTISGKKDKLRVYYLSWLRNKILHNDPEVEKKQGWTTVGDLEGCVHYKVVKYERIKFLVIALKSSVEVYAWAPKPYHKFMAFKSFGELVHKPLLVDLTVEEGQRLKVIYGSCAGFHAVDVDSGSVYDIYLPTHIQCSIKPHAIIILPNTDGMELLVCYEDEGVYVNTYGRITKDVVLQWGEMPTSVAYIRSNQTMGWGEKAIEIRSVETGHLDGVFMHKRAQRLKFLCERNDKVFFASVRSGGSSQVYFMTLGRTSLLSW

[6] = biological target: Cyclin-dependent kinase 16 (Homo sapiens) (UniProt Q00536); test: Selectivity interaction (KinomeScan (DiscoverX)) EUB0000045b CDK16
Cyclin-dependent kinase 16 (Homo sapiens), sequence (Q00536 whole entry): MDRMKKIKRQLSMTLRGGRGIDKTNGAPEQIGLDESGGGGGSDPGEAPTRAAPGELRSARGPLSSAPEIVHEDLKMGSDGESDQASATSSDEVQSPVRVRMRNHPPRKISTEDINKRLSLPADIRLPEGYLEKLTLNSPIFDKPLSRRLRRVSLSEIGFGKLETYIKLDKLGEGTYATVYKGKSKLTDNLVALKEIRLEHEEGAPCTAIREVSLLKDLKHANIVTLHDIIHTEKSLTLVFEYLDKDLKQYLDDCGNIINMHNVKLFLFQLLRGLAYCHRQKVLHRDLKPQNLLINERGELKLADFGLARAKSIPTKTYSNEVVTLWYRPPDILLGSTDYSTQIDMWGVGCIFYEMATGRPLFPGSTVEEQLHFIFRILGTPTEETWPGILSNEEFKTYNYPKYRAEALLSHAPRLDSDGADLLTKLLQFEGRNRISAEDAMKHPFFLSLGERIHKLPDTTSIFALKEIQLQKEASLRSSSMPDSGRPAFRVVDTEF

[7] = biological target: T2, Rhodopsin kinase GRK1 (Homo sapiens) (UniProt Q15835); test: Selectivity interaction (KinomeScan (DiscoverX)) EUB0001079a GRK1; conditions: at 1 µM
T2 sequence (whole entry): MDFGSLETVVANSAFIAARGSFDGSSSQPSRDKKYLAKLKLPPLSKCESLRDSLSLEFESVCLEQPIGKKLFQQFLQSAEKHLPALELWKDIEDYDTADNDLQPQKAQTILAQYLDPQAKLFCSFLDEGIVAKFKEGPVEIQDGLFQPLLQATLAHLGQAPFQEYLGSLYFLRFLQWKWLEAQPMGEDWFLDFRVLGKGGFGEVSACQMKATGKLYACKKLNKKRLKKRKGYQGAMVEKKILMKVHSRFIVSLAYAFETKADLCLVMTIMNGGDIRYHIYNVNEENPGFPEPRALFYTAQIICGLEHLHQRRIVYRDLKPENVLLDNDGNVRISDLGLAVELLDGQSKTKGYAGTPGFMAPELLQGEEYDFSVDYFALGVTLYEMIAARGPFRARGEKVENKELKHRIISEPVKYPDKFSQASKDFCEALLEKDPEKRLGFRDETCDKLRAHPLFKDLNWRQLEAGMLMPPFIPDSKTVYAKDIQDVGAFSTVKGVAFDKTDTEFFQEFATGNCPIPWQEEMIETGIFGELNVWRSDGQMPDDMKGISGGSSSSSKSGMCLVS

[8] = biological target: T3, Serine/threonine-protein kinase 3 (Homo sapiens) (UniProt Q13188); test: Selectivity interaction (ActivX KiNativ screen (ex vivo kinase selectivity in human PBMCs)) EUB0001619a STK3; assay type: cell-based; conditions: PBMC, at 1 µM
T3 sequence (whole entry): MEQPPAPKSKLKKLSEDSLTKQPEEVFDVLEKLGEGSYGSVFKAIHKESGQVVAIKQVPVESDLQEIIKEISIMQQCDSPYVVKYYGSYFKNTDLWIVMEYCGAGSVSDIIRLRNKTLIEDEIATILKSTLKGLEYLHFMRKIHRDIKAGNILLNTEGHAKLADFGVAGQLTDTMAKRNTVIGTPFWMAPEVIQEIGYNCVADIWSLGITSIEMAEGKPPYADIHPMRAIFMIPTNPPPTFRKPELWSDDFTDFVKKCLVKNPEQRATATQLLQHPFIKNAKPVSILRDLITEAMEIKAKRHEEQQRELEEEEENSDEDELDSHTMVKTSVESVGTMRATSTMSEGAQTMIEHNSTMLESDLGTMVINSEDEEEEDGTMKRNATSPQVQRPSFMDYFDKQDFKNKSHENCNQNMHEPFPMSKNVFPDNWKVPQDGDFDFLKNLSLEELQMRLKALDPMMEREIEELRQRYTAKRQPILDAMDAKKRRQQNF

[9] = biological target: T4, Dual specificity mitogen-activated protein kinase kinase 4 (Homo sapiens) (UniProt P45985); test: Selectivity interaction (ActivX KiNativ screen (ex vivo kinase selectivity in human PBMCs)) EUB0001619a MAP2K4; assay type: cell-based; conditions: PBMC, at 1 µM
T4 sequence (whole entry): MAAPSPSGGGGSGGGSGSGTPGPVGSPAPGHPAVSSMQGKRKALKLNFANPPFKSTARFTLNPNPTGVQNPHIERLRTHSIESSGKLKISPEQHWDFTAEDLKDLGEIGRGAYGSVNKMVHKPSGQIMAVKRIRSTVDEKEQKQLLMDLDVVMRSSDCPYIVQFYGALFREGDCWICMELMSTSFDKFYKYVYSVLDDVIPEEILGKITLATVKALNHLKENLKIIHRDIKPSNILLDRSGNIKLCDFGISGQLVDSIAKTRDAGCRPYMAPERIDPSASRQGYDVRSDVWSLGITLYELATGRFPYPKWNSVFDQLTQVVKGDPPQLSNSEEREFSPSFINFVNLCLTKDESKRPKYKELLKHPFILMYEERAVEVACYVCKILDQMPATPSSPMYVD

Histamine H3 receptor, sequence (Q9Y5N1 whole entry): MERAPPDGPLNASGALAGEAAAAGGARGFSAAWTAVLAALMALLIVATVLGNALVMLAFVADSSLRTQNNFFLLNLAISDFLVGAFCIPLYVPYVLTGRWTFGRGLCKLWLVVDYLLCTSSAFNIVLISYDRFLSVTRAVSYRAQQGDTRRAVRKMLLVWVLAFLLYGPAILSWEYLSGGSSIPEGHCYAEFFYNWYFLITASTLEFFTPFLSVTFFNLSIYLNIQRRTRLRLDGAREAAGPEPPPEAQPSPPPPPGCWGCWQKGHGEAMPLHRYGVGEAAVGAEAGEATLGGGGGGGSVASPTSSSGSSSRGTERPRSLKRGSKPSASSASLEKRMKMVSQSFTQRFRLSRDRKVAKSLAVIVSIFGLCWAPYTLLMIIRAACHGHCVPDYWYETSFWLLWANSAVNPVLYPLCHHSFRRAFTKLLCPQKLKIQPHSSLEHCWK

- IC50 [1]: > 30 µM
SMILES: CCC(=O)N1CC[C@H](Nc2ncnc3c2CN(c2cnc(OC)c(C(F)(F)F)c2)CC3)C1 [LENIOLISIB]

- % of inhibition [2]: 23.6%
SMILES: CC[C@@H](Nc1c(C#N)c(-c2ccc(-c3cccc(C)c3F)cc2)nc2cnccc12)C(=O)O [BAY-091]

SMILES: CNC(=O)Nc1ccc(-c2nc(N3CC4CCC(C3)O4)c3cnn(C4CCC5(CC4)OCCO5)c3n2)cc1
- % of control [3]: 5.7%

- % of control [4]: 97%
SMILES: CC(=O)Nc1cccc(-n2c(=O)n(C3CC3)c(=O)c3c(Nc4ccc(I)cc4F)n(C)c(=O)c(C)c32)c1

SMILES: C=CC(=O)Nc1cc(-n2c(=O)ccc3cnc4ccc(-c5ccc(NS(C)(=O)=O)cc5)cc4c32)ccc1C
- % of control ([5]; at 1 µM): 100%
- % of control ([5]; at 10 µM): 100%
- % of control ([6]; at 1 µM): 100%
- % of control ([6]; at 10 µM): 100%

SMILES: Nc1cnc(N2CCc3cc(S(=O)(=O)Nc4c(F)cc(Cl)cc4F)cc(N4CCCC4=O)c32)nc1 [TP-020n]
- % of control [7]: 100%

SMILES: N#Cc1cccc(-c2c[nH]c3ncnc(N4CCOCC4)c23)c1
- % of inhibition [8]: 71%
- % of inhibition [9]: -17%
